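Five compound concentrations were applied to cells in 96-well plates for 48 hours; endpoints were derived by simple linear interpolation of the resulting dose-response curve. GI50 is the concentration that inhibits growth by half.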 The source made the active and inactive calls. Rule as the data show it: active = GI50 up to about 1.1 µM and inactive = higher.
Assays:
Test in all cases: DTP human tumour cell line panel, 48 h
[1] = test system: A498
[2] = test system: NCI-H23
[3] = test system: SW-620
[4] = test system: OVCAR-5
[5] = test system: SK-MEL-5
[6] = test system: Malme-3M
[7] = test system: CCRF-CEM
[8] = test system: MOLT-4
[9] = test system: RPMI-8226
[10] = test system: IGROV-1
[11] = test system: UACC-62
[12] = test system: OVCAR-3
[13] = test system: HCT-15
[14] = test system: HL-60
[15] = test system: NCI-H460
[16] = test system: KM12
[17] = test system: SK-MEL-2
[18] = test system: HCC 2998

SMILES | GI50 [1] | GI50 [2] | GI50 [3] | GI50 [4] | GI50 [5] | GI50 [6] | GI50 [7] | GI50 [8] | GI50 [9] | GI50 [10] | GI50 [11] | GI50 [12] | GI50 [13] [µM] | GI50 [14] | GI50 [15] | GI50 [16] | GI50 [17] | GI50 [18]
CCOc1ccc(OP2(=O)NC(=O)C=C(C)N2)cc1 (stereo not drawn) | > 100 µM (inactive) | > 100 µM (inactive) | > 100 µM (inactive) | > 100 µM (inactive) | > 100 µM (inactive) | > 100 µM (inactive) | 44.2 µM (inactive) | > 100 µM (inactive) | > 100 µM (inactive) | > 100 µM (inactive) | > 100 µM (inactive) | > 100 µM (inactive) | > 100 | 37.8 µM (inactive) | > 100 µM (inactive) | > 100 µM (inactive) | > 100 µM (inactive) | –
CCOc1nc(OCC)nc(-c2cccn2-c2ccccc2)n1 | 47.4 µM (inactive) | 30.8 µM (inactive) | 50.4 µM (inactive) | 74.1 µM (inactive) | – | 21.4 µM (inactive) | 29.6 µM (inactive) | 17.7 µM (inactive) | – | 29.6 µM (inactive) | 27.7 µM (inactive) | 20.7 µM (inactive) | 34.6 | 21.7 µM (inactive) | 29 µM (inactive) | 28.5 µM (inactive) | 34.8 µM (inactive) | 32.3 µM (inactive)
O=C(c1ccncc1)n1nc(-c2ccccc2)c(/N=N/c2ccc([N+](=O)[O-])cc2)c1-c1ccccc1 | > 100 µM (inactive) | 22.6 µM (inactive) | > 100 µM (inactive) | – | 27.3 µM (inactive) | 90.6 µM (inactive) | > 10 µM (inactive) | 48.6 µM (inactive) | 28.4 µM (inactive) | > 100 µM (inactive) | 90.8 µM (inactive) | 50.9 µM (inactive) | – | 89.3 µM (inactive) | – | 34.8 µM (inactive) | 77.8 µM (inactive) | 71.3 µM (inactive)
O=C1CCC(Cl)=CC2CCCN12 (stereo not drawn) | > 100 µM (inactive) | > 100 µM (inactive) | > 100 µM (inactive) | > 100 µM (inactive) | > 100 µM (inactive) | > 100 µM (inactive) | > 10 µM (inactive) | > 100 µM (inactive) | > 100 µM (inactive) | > 100 µM (inactive) | > 100 µM (inactive) | – | > 100 | > 100 µM (inactive) | > 100 µM (inactive) | – | > 100 µM (inactive) | > 100 µM (inactive)
COc1ccc(-c2c(C3=NCCCN3)nnn2-c2ccccc2)cc1 | > 100 µM (inactive) | > 100 µM (inactive) | > 100 µM (inactive) | > 100 µM (inactive) | > 100 µM (inactive) | > 100 µM (inactive) | > 100 µM (inactive) | > 100 µM (inactive) | > 100 µM (inactive) | > 100 µM (inactive) | > 100 µM (inactive) | > 100 µM (inactive) | > 100 | > 100 µM (inactive) | > 100 µM (inactive) | > 100 µM (inactive) | > 100 µM (inactive) | > 100 µM (inactive)
COc1ccc2c([nH]c3cc(O)c(C)cc32)c1C=O | – | – | > 25 µM (inactive) | > 25 µM (inactive) | > 25 µM (inactive) | > 25 µM (inactive) | 23.6 µM (inactive) | 11.2 µM (inactive) | > 25 µM (inactive) | > 25 µM (inactive) | > 25 µM (inactive) | > 25 µM (inactive) | 14.8 | 15.9 µM (inactive) | 11.2 µM (inactive) | > 25 µM (inactive) | > 25 µM (inactive) | > 25 µM (inactive)
CC1C=CC(C(N)C(=O)O)O1 (stereo not drawn) | > 100 µM (inactive) | > 100 µM (inactive) | > 100 µM (inactive) | > 100 µM (inactive) | > 100 µM (inactive) | > 100 µM (inactive) | > 100 µM (inactive) | > 100 µM (inactive) | > 100 µM (inactive) | > 100 µM (inactive) | > 100 µM (inactive) | > 100 µM (inactive) | > 100 | > 100 µM (inactive) | > 100 µM (inactive) | > 100 µM (inactive) | > 100 µM (inactive) | > 100 µM (inactive)
Nc1ccc2nc(Nc3ccc(Cl)c(Cl)c3)cnc2c1 | – | 22.4 µM (inactive) | 17.9 µM (inactive) | 19.1 µM (inactive) | 37.2 µM (inactive) | 18.5 µM (inactive) | 1.11 µM (active) | 1.6 µM (inactive) | 12.2 µM (inactive) | – | – | 16.9 µM (inactive) | 16.6 | 8.47 µM (inactive) | 17.6 µM (inactive) | 15.6 µM (inactive) | 20 µM (inactive) | 16.1 µM (inactive)
CC(=O)O/N=C(Cl)/C(Cl)=N/OC(C)=O | > 100 µM (inactive) | > 100 µM (inactive) | > 100 µM (inactive) | > 100 µM (inactive) | – | > 100 µM (inactive) | > 100 µM (inactive) | > 100 µM (inactive) | > 100 µM (inactive) | > 100 µM (inactive) | > 100 µM (inactive) | – | > 100 | > 100 µM (inactive) | > 100 µM (inactive) | > 100 µM (inactive) | > 100 µM (inactive) | > 100 µM (inactive)
C=CCNC(=S)OCCCCCCCCCC | 18.5 µM (inactive) | 19.8 µM (inactive) | 18.7 µM (inactive) | 10.2 µM (inactive) | 16.7 µM (inactive) | 19.6 µM (inactive) | 15.7 µM (inactive) | 13.9 µM (inactive) | 18.8 µM (inactive) | 20 µM (inactive) | 16.5 µM (inactive) | – | 15.8 | 16.4 µM (inactive) | 17.6 µM (inactive) | 12.4 µM (inactive) | 12.3 µM (inactive) | 17.7 µM (inactive)
CC1OC(n2ccc(=O)[nH]c2=O)C=C(OC(=O)c2ccccc2)C1=O (stereo not drawn) | – | 36.6 µM (inactive) | 64.6 µM (inactive) | – | 56.1 µM (inactive) | 74.6 µM (inactive) | > 100 µM (inactive) | > 100 µM (inactive) | > 100 µM (inactive) | > 100 µM (inactive) | > 100 µM (inactive) | 26.9 µM (inactive) | > 100 | > 100 µM (inactive) | 48.6 µM (inactive) | – | – | –
CC(=O)OCC1OC(N=[N+]=[N-])C(OC(C)=O)C(OC(C)=O)C1OC1OC(COC(C)=O)C(OC(C)=O)C(OC(C)=O)C1OC(C)=O (stereo not drawn) | > 100 µM (inactive) | > 100 µM (inactive) | > 100 µM (inactive) | > 100 µM (inactive) | > 100 µM (inactive) | > 100 µM (inactive) | > 100 µM (inactive) | > 100 µM (inactive) | > 100 µM (inactive) | > 100 µM (inactive) | > 100 µM (inactive) | > 100 µM (inactive) | > 100 | > 100 µM (inactive) | > 100 µM (inactive) | > 100 µM (inactive) | > 100 µM (inactive) | > 100 µM (inactive)
CN1CCc2c1nc(-c1ccccc1)c1c2N(C)CC1 | 26.1 µM (inactive) | 55.7 µM (inactive) | 86.9 µM (inactive) | > 100 µM (inactive) | 36.1 µM (inactive) | 91.4 µM (inactive) | 60.5 µM (inactive) | 38.1 µM (inactive) | 39.6 µM (inactive) | > 100 µM (inactive) | > 100 µM (inactive) | 21.4 µM (inactive) | 66.4 | 31 µM (inactive) | 71.1 µM (inactive) | 48.4 µM (inactive) | > 100 µM (inactive) | 99.3 µM (inactive)
O=C(CC1C(=O)Nc2ccccc2[S+]1[O-])Nc1cc(Cl)ccc1Cl (stereo not drawn) | > 100 µM (inactive) | > 100 µM (inactive) | > 100 µM (inactive) | > 100 µM (inactive) | > 100 µM (inactive) | > 100 µM (inactive) | > 100 µM (inactive) | > 100 µM (inactive) | > 100 µM (inactive) | > 100 µM (inactive) | > 100 µM (inactive) | > 100 µM (inactive) | > 100 | > 100 µM (inactive) | > 100 µM (inactive) | – | > 100 µM (inactive) | > 100 µM (inactive)
FC(F)(F)c1cccc2ns[s+]c12 | > 100 µM (inactive) | > 100 µM (inactive) | > 100 µM (inactive) | > 100 µM (inactive) | 69.8 µM (inactive) | > 100 µM (inactive) | > 100 µM (inactive) | > 100 µM (inactive) | – | > 100 µM (inactive) | > 100 µM (inactive) | > 100 µM (inactive) | – | > 100 µM (inactive) | > 100 µM (inactive) | > 100 µM (inactive) | > 100 µM (inactive) | > 100 µM (inactive)
CCC1(O)CC(c2ccccc2)N(C)C(c2ccccc2)C1 (stereo not drawn) | > 100 µM (inactive) | > 100 µM (inactive) | > 100 µM (inactive) | > 100 µM (inactive) | > 100 µM (inactive) | > 100 µM (inactive) | > 100 µM (inactive) | > 100 µM (inactive) | – | > 100 µM (inactive) | > 100 µM (inactive) | > 100 µM (inactive) | > 100 | 69.2 µM (inactive) | > 100 µM (inactive) | > 100 µM (inactive) | > 100 µM (inactive) | > 100 µM (inactive)
O=[N+]([O-])c1nccn1CC1OC(n2ccnc2[N+](=O)[O-])C(O)C(O)C1O (stereo not drawn) | > 100 µM (inactive) | > 100 µM (inactive) | > 100 µM (inactive) | > 100 µM (inactive) | > 100 µM (inactive) | > 100 µM (inactive) | > 100 µM (inactive) | > 100 µM (inactive) | > 100 µM (inactive) | – | > 100 µM (inactive) | – | – | > 100 µM (inactive) | > 100 µM (inactive) | > 100 µM (inactive) | > 100 µM (inactive) | > 100 µM (inactive)

Source: ChEMBL document CHEMBL1201862, “PubChem BioAssay data set” (2004)
